Test: xn = mol fraction of the nth substance listed
Details: 100 kPa, Liquid; for mass density: Vibrating tube method; for speed of sound: Frequency=3 MHz, Sing-around technique in a fixed-path interferometer

CCCCOCC(C)O (stereo not given) [1-butoxy-2-propanol] + CCCO
Details | mass density, 303.15 K [kg/m3] | mass density, 308.15 K [kg/m3] | mass density, 313.15 K [kg/m3] | speed of sound, 308.15 K [m/s] | speed of sound, 313.15 K [m/s]
x1 = 0.0573 | 804.905 | 800.798 | 796.651 | 1180.4 | 1164.1
x1 = 0.1001 | 810.658 | 806.519 | 802.334 | 1185.4 | 1169
x1 = 0.1558 | 817.667 | 813.493 | 809.279 | 1191.3 | 1174.7
x1 = 0.2031 | 822.949 | 818.753 | 814.513 | 1195.7 | 1179.1
x1 = 0.2532 | 828.091 | 823.867 | 819.599 | 1199.8 | 1183.1
x1 = 0.3033 | 832.749 | 828.501 | 824.211 | 1203.5 | 1186.7
x1 = 0.4046 | 841.013 | 836.72 | 832.382 | 1209.6 | 1192.7
x1 = 0.5048 | 847.934 | 843.623 | 839.27 | 1214.4 | 1197.2
x1 = 0.6055 | 853.82 | 849.452 | 845.054 | 1218.2 | 1201
x1 = 0.7052 | 858.839 | 854.443 | 850.006 | 1221.1 | 1203.8
x1 = 0.807 | 863.298 | 858.874 | 854.415 | 1223.4 | 1206.2
x1 = 0.8546 | 865.165 | 860.735 | 856.272 | 1224.2 | 1206.6
x1 = 0.9041 | 867.019 | 862.582 | 858.113 | 1225 | 1207.4
x1 = 0.9537 | 868.704 | 864.265 | 859.772 | 1225.6 | 1208.1
x1 = 1 | 870.204 | 865.737 | 861.241 | 1224.9 | 1207
